Measurements published in patent US7557133B2, “Caspase inhibitors containing isoxazoline ring” (LG Life Sciences Ltd., priority 2003, dated 2009).

Target: T1, caspase-9 (Homo sapiens, UniProt P55211)
T1 construct: p10 and p20 subunits (Thornberry, N. A. et al, Nature, 1992, 356, 768) were expressed in E. coli; made in house; host or cells: E. coli
T1 sequence (P55211 1-315 limits assumed): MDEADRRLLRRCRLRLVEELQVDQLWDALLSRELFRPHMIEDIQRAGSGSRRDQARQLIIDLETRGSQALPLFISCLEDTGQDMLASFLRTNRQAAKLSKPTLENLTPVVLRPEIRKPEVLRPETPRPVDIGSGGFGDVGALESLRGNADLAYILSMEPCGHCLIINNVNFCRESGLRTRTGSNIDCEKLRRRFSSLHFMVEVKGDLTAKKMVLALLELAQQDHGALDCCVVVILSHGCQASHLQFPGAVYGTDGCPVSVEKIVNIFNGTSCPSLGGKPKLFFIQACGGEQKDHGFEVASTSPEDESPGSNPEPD
T1 sequence (P55211 331-416 limits assumed): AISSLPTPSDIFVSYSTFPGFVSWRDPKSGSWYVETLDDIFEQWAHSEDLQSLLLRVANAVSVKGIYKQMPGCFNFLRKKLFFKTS
Test: Caspase-9 inhibitory effect (fluorescent substrate AcLEHD-AFC)
Type: biochemical
Details: pH 7.5; 25° C., 150 μM AcLEHD-AFC, 200 nM caspase-9; read-out: Caspase-9 Kobs/[I] (converted)
Method: Caspase-1 and caspase-8 known as cysteine proteases in the form of α2β2 were expressed, purified, and activated by modifying a method known in Thornberry, N. A. et al, Nature, 1992, 356, 768. Thornberry, N. A. Methods in Enzymology, 1994, 244, 615. Walker, N. P. C. et al. Cell, 1994, 78, 343, and caspase-9 was also purified by a similar method, and the inhibitory activity against them was tested. Briefly describing, p10 and p20 subunits (Thornberry, N. A. et al, Nature, 1992, 356, 768) were expressed in E. coli and purified by nickel column and anionic exchange chromatography to give caspase-1, caspase-8 and caspase-9. The fluorescent substrate AcYVAD-AFC for thus obtained caspase-1, AcDEVD-AFC for caspase-8, and AcLEHD-AFC for caspase-9 were used for determining specific activity of the synthesized inhibitors. […] The inhibitory constants Ki and Kobs of the inhibitors were determined by measuring the reaction velocity with the time lapse using a fluorescent spectrometer and by obtaining the initial rate constant. Ki was calculated from the Lineweaver Burk Plot, and Kobs from the following Equation 1. […]

kinact/KI: 3330 M⁻¹ s⁻¹
SMILES: CC(C)[C@@]1(C(=O)NC(CC(=O)O)C(=O)CF)CC(c2nccc3ccccc23)=NO1 (stereo partly drawn) [Iii, 5-Fluoro-3-({[(5R)-5-isopropyl-3-(1-isoquinolinyl)-4,5-dihydro-5-isoxazolyl]carbonyl}amino)-4-oxopentanoic acid]
